Laboratory results published in the supplement of paper PMC10307832.

Legend:
Test in all cases: relative viability (nuclei count vs DMSO), 5 days (fraction); higher = more cells survive
VX-11e + Palbociclib = compound: CC1=CN=C(N=C1C2=CNC(=C2)C(=O)N[C@H](CO)C3=CC(=CC=C3)Cl)NC4=C(C=C(C=C4)F)Cl [VX-11e] + CC(=O)c1c(C)c2cnc(Nc3ccc(N4CCNCC4)cn3)nc2n(C2CCCC2)c1=O [Palbociclib] (partner 0.5 µM)
How it was run: (§1)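 Relative viability was taken as the ratio of nuclei in treated wells to nuclei in vehicle wells. Lung cancer cell lines in 1536-well plates received compounds by pin tool one day after seeding, either one drug alone or a fixed anchor-drug dose plus five library-drug doses (not always all listed) in √10 steps. Nuclei were counted on 4× images after 5 days of treatment, and values are medians of duplicate plates.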

VX-11e + Luminespib = compound: CC1=CN=C(N=C1C2=CNC(=C2)C(=O)N[C@H](CO)C3=CC(=CC=C3)Cl)NC4=C(C=C(C=C4)F)Cl [VX-11e] + CCNC(=O)c1noc(-c2cc(C(C)C)c(O)cc2O)c1-c1ccc(CN2CCOCC2)cc1 [Luminespib] (partner 0.01 µM)
How it was run: as §1

VX-11e + OSI-027 = compound: CC1=CN=C(N=C1C2=CNC(=C2)C(=O)N[C@H](CO)C3=CC(=CC=C3)Cl)NC4=C(C=C(C=C4)F)Cl [VX-11e] + COc1cccc2cc(-c3nc([C@H]4CC[C@H](C(=O)O)CC4)n4ncnc(N)c34)[nH]c12 [OSI-027] (partner 0.5 µM)
How it was run: as §1

VX-11e + Pictilisib = compound: CC1=CN=C(N=C1C2=CNC(=C2)C(=O)N[C@H](CO)C3=CC(=CC=C3)Cl)NC4=C(C=C(C=C4)F)Cl [VX-11e] + CS(=O)(=O)N1CCN(Cc2cc3nc(-c4cccc5[nH]ncc45)nc(N4CCOCC4)c3s2)CC1 [Pictilisib] (partner 1 µM)
How it was run: as §1

| Cell Line | relative viability (VX-11e + Palbociclib; first compound 0.04 µM) | relative viability (VX-11e + Palbociclib; first compound 0.1265 µM) | relative viability (VX-11e + Palbociclib; first compound 0.4 µM) | relative viability (VX-11e + Palbociclib; first compound 1.265 µM) | relative viability (VX-11e + Palbociclib; first compound 4 µM) | relative viability (VX-11e + Luminespib; first compound 0.04 µM) | relative viability (VX-11e + Luminespib; first compound 0.1265 µM) | relative viability (VX-11e + Luminespib; first compound 0.4 µM) | relative viability (VX-11e + Luminespib; first compound 1.265 µM) | relative viability (VX-11e + Luminespib; first compound 4 µM) | relative viability (VX-11e + OSI-027; first compound 0.04 µM) | relative viability (VX-11e + OSI-027; first compound 0.1265 µM) | relative viability (VX-11e + OSI-027; first compound 0.4 µM) | relative viability (VX-11e + OSI-027; first compound 1.265 µM) | relative viability (VX-11e + OSI-027; first compound 4 µM) | relative viability (VX-11e + Pictilisib; first compound 0.04 µM) | relative viability (VX-11e + Pictilisib; first compound 0.1265 µM) | relative viability (VX-11e + Pictilisib; first compound 0.4 µM) | relative viability (VX-11e + Pictilisib; first compound 1.265 µM) | relative viability (VX-11e + Pictilisib; first compound 4 µM) |
| --- | --- | --- | --- | --- | --- | --- | --- | --- | --- | --- | --- | --- | --- | --- | --- | --- | --- | --- | --- | --- |
| EKVX | 0.397 | 0.378 | 0.452 | 0.368 | 0.19 | 0.714 | 0.894 | 0.723 | 0.85 | 0.52 | 0.692 | 0.661 | 0.703 | 0.667 | 0.223 | 0.447 | 0.545 | 0.461 | 0.404 | 0.19 |
| NCI-H647 | 0.37 | 0.346 | 0.372 | 0.256 | 0.217 | 0.248 | 0.329 | 0.118 | 0.24 | 0.111 | 0.664 | 0.456 | 0.496 | 0.41 | 0.353 | 0.32 | 0.26 | 0.122 | 0.381 | 0.132 |
| NCI-H2126 | 0.331 | 0.379 | 0.359 | 0.353 | 0.318 | 0.824 | 0.877 | – | 0.964 | 0.737 | 0.533 | 0.816 | 0.315 | 0.448 | 0.541 | – | 0.518 | 0.393 | 0.384 | 0.392 |
| NCI-H520 | 0.202 | 0.254 | 0.232 | 0.244 | 0.292 | 0.205 | 0.183 | 0.19 | 0.272 | 0.207 | 0.247 | 0.25 | 0.203 | 0.217 | 0.313 | 0.267 | 0.276 | 0.34 | 0.274 | 0.336 |
| EMC-BAC-2 | 0.563 | 0.459 | 0.533 | 0.553 | 0.432 | 1.21 | 1.19 | 1.2 | 1.19 | 0.924 | 0.312 | 0.387 | 0.458 | 0.421 | 0.357 | 0.468 | 0.488 | 0.516 | 0.432 | 0.337 |
| NCI-H1755 | 0.429 | 0.404 | 0.45 | 0.43 | 0.417 | 0.3 | 0.42 | 0.479 | 0.466 | 0.324 | 0.665 | 0.527 | 0.4 | 0.756 | 0.468 | 0.397 | 0.337 | 0.152 | 0.357 | 0.16 |
| ABC-1 | 0.568 | – | 0.655 | 0.548 | 0.65 | – | – | 0.495 | 0.436 | 0.518 | 0.309 | 0.426 | 0.374 | 0.339 | 0.278 | 0.615 | 0.539 | 0.809 | 0.518 | 0.466 |
| NCI-H661 | 0.375 | 0.406 | 0.348 | 0.402 | 0.379 | 0.981 | 0.913 | 0.937 | 0.907 | 0.603 | 0.727 | 0.632 | 0.751 | 0.625 | 0.396 | 0.324 | 0.462 | 0.4 | 0.403 | 0.363 |
| H3255 | 0.312 | 0.305 | 0.316 | 0.316 | 0.327 | 0.773 | 0.963 | 0.819 | 0.686 | 0.89 | 0.52 | 0.601 | 0.559 | 0.637 | 0.407 | 0.476 | 0.428 | 0.482 | 0.596 | 0.316 |
| CAL-12T | 0.391 | 0.433 | 0.331 | 0.141 | 0.116 | 0.392 | 0.434 | 0.462 | 0.433 | 0.276 | 0.402 | 0.523 | 0.424 | 0.312 | 0.199 | – | – | 0.393 | 0.524 | 0.295 |
| NCI-H1915 | 0.546 | 0.465 | 0.481 | 0.433 | 0.217 | 0.821 | 0.737 | 0.851 | 0.773 | 0.59 | 0.573 | 0.439 | 0.254 | 0.338 | 0.213 | 0.556 | 0.757 | 0.636 | 0.627 | 0.282 |
| NCI-H2023 | 0.336 | 0.338 | 0.251 | 0.203 | 0.111 | 0.683 | 0.791 | 0.701 | 0.6 | 0.361 | 0.332 | 0.349 | 0.139 | 0.183 | 0.114 | 0.2 | 0.215 | 0.0991 | 0.151 | 0.119 |
| NCI-H727 | 0.589 | 0.358 | 0.602 | 0.559 | 0.412 | 0.293 | 0.294 | 0.291 | 0.312 | 0.371 | 0.353 | 0.678 | 0.522 | 0.447 | 0.284 | 0.243 | 0.451 | 0.314 | 0.238 | 0.173 |
| NCI-H2170 | 0.354 | 0.386 | 0.381 | 0.339 | 0.424 | 0.878 | 0.639 | 0.566 | 0.802 | 0.436 | 0.589 | 0.624 | 0.155 | 0.649 | 0.453 | 0.244 | 0.265 | 0.19 | 0.217 | 0.237 |
| NCI-H1650 | 0.314 | 0.258 | 0.158 | 0.253 | 0.28 | 0.195 | 0.185 | – | 0.192 | 0.186 | 0.592 | 0.534 | – | 0.402 | 0.307 | 0.531 | 0.451 | 0.171 | 0.276 | 0.303 |
| NCI-H1944 | 0.323 | 0.343 | 0.338 | 0.264 | 0.205 | 0.711 | 0.708 | – | 0.571 | 0.422 | 0.342 | 0.343 | – | 0.309 | 0.259 | 0.301 | 0.308 | 0.306 | 0.309 | 0.281 |
